Reference: PMC9389804 (Journal of Hematology & Oncology, 2022)
Several values for one entry are separate records, joined by “and”; a condition that tells them apart may be missing. Equal entries are not always repeated.

Experiment: safety assessments (adverse events, NCI CTCAE)
Conditions: for Treatment-related cardiovascular events: G 3/4
[1] = AE resulting in dose interruption, Total n=165
[2] = AE resulting in dose reduction, Accelerated phase n=38
[3] = AE resulting in dose reduction, Chronic phase n=127
[4] = AE resulting in dose reduction, Total n=165
[5] = AE resulting in treatment discontinuation, Accelerated phase n=38
[6] = AE resulting in treatment discontinuation, Chronic phase n=127
[7] = AE resulting in treatment discontinuation, Total n=165
[8] = CVE possibly related to olverembatinib, all 165 patients
[9] = CVEs possibly related to olverembatinib

Experimental: Adverse events were assessed continuously and graded according to NCI CTCAE v5.0.18. Complete blood count with differential, serum chemistries, and physical examinations were performed before the study; weekly during Cycles 1 and 2; on alternate weeks in Cycles 3 and 4; and monthly thereafter.

Cc1ccc(C(=O)Nc2ccc(CN3CCN(C)CC3)c(C(F)(F)F)c2)cc1C#Cc1cnc2[nH]ncc2c1 [olverembatinib]
Musculoskeletal pain [1]: 1 (0.6) n (%) | Myocardial strain [1]: 1 (0.6) n (%) | Neutropenia [1]: 5 (3.0) n (%) | Nonhematologic [1]: 48 (29.1) n (%) | Pain [1]: 1 (0.6) n (%) | Pain in extremity [1]: 1 (0.6) n (%) | Pericardial effusion [1]: 1 (0.6) n (%) | Peripheral swelling [1]: 1 (0.6) n (%) | Pneumonia [1]: 2 (1.2) n (%) | Proteinuria [1]: 1 (0.6) n (%) | Pulmonary arterial hypertension [1]: 1 (0.6) n (%) | Pulmonary tuberculosis [1]: 1 (0.6) n (%) | Pyrexia [1]: 3 (1.8) n (%) | Rash [1]: 1 (0.6) n (%) | Refraction disorder [1]: 1 (0.6) n (%) | Sinus bradycardia [1]: 1 (0.6) n (%) | Sinus tachycardia [1]: 2 (1.2) n (%) | Skin mass [1]: 1 (0.6) n (%) | Superior mesenteric artery syndrome [1]: 1 (0.6) n (%) | Supraventricular extrasystoles [1]: 1 (0.6) n (%) | Swelling [1]: 1 (0.6) n (%) | Thrombocytopenia [1]: 59 (35.8) n (%) | Upper-respiratory-tract infection [1]: 2 (1.2) n (%) | Urinary sediment present [1]: 1 (0.6) n (%) | Acute coronary syndrome [2]: 0 n (%) | Anemia [2]: 1 (2.6) n (%) | Arteriosclerosis coronary artery [2]: 0 n (%) | Arthralgia [2]: 1 (2.6) n (%) | Asthenia [2]: 0 n (%) | Atrial fibrillation [2]: 1 (2.6) n (%) | Cerebral infarction [2]: 0 n (%) | Chest discomfort [2]: 0 n (%) | Dyspnea [2]: 0 n (%) | Electrocardiogram QT prolonged [2]: 0 n (%) | Glaucoma [2]: 0 n (%) | Hematologic adverse events [2]: 10 (26.3) n (%) | Hyperbilirubinaemia [2]: 1 (2.6) n (%) | Hyperglycaemia [2]: 1 (2.6) n (%) | Hypertriglyceridaemia [2]: 0 n (%) | Hypokalemia [2]: 1 (2.6) n (%) | Increased creatine phosphokinase [2]: 0 n (%) | Leukopenia [2]: 2 (5.3) n (%) | Neutropenia [2]: 1 (2.6) n (%) | Nonhaematologic [2]: 5 (13.2) n (%) | Proteinuria [2]: 0 n (%) | Retinal-vein occlusion [2]: 0 n (%) | Seronegative arthritis [2]: 1 (2.6) n (%) | Subileus [2]: 0 n (%) | Thrombocytopenia [2]: 7 (18.4) n (%) | Acute coronary syndrome [3]: 1 (0.8) n (%) | Anemia [3]: 2 (1.6) n (%) | Arteriosclerosis coronary artery [3]: 1 (0.8) n (%) | Arthralgia [3]: 0 n (%) | Asthenia [3]: 1 (0.8) n (%) | Atrial fibrillation [3]: 0 n (%) | Cerebral infarction [3]: 1 (0.8) n (%) | Chest discomfort [3]: 1 (0.8) n (%) | Dyspnea [3]: 1 (0.8) n (%) | Electrocardiogram QT prolonged [3]: 1 (0.8) n (%) | Glaucoma [3]: 1 (0.8) n (%) | Hematologic adverse events [3]: 20 (15.7) n (%) | Hyperbilirubinaemia [3]: 1 (0.8) n (%) | Hyperglycaemia [3]: 1 (0.8) n (%) | Hypertriglyceridaemia [3]: 1 (0.8) n (%) | Hypokalemia [3]: 0 n (%) | Increased creatine phosphokinase [3]: 2 (1.6) n (%) | Leukopenia [3]: 0 n (%) | Neutropenia [3]: 2 (1.6) n (%) | Nonhaematologic [3]: 16 (12.6) n (%) | Proteinuria [3]: 1 (0.8) n (%) | Retinal-vein occlusion [3]: 2 (1.6) n (%) | Seronegative arthritis [3]: 0 n (%) | Subileus [3]: 1 (0.8) n (%) | Thrombocytopenia [3]: 19 (15) n (%) | Acute coronary syndrome [4]: 1 (0.6) n (%) | Anemia [4]: 3 (1.8) n (%) | Arteriosclerosis coronary artery [4]: 1 (0.6) n (%) | Arthralgia [4]: 1 (0.6) n (%) | Asthenia [4]: 1 (0.6) n (%) | Atrial fibrillation [4]: 1 (0.6) n (%) | Cerebral infarction [4]: 1 (0.6) n (%) | Chest discomfort [4]: 1 (0.6) n (%) | Dyspnea [4]: 1 (0.6) n (%) | Electrocardiogram QT prolonged [4]: 1 (0.6) n (%) | Glaucoma [4]: 1 (0.6) n (%) | Hematologic adverse events [4]: 30 (18.2) n (%) | Hyperbilirubinaemia [4]: 2 (1.2) n (%) | Hyperglycaemia [4]: 2 (1.2) n (%) | Hypertriglyceridaemia [4]: 1 (0.6) n (%) | Hypokalemia [4]: 1 (0.6) n (%) | Increased creatine phosphokinase [4]: 2 (1.2) n (%) | Leukopenia [4]: 2 (1.2) n (%) | Neutropenia [4]: 3 (1.8) n (%) | Nonhaematologic [4]: 21 (12.7) n (%) | Proteinuria [4]: 1 (0.6) n (%) | Retinal-vein occlusion [4]: 2 (1.2) n (%) | Seronegative arthritis [4]: 1 (0.6) n (%) | Subileus [4]: 1 (0.6) n (%) | Thrombocytopenia [4]: 26 (15.8) n (%) | Acute myocardial infarction [5]: 0 n (%) | Breast cancer [5]: 0 n (%) | Febrile neutropenia [5]: 0 n (%) | Hematologic [5]: 3 (7.9) n (%) | Lacunar infarction [5]: 0 n (%) | Nonhaematologic [5]: 1 (2.6) n (%) | Pericardial effusion [5]: 1 (2.6) n (%) | Proteinuria [5]: 0 n (%) | Retinal-vein occlusion [5]: 0 n (%) | Thrombocytopenia [5]: 3 (7.9) n (%) | Acute myocardial infarction [6]: 1 (0.8) n (%) | Breast cancer [6]: 1 (0.8) n (%) | Febrile neutropenia [6]: 1 (0.8) n (%) | Hematologic [6]: 4 (3.1) n (%) | Lacunar infarction [6]: 1 (0.8) n (%) | Nonhaematologic [6]: 5 (3.9) n (%) | Pericardial effusion [6]: 0 n (%) | Proteinuria [6]: 1 (0.8) n (%) | Retinal-vein occlusion [6]: 1 (0.8) n (%) | Thrombocytopenia [6]: 3 (2.4) n (%) | Acute myocardial infarction [7]: 1 (0.6) n (%) | Breast cancer [7]: 1 (0.6) n (%) | Febrile neutropenia [7]: 1 (0.6) n (%) | Hematologic [7]: 7 (4.2) n (%) | Lacunar infarction [7]: 1 (0.6) n (%) | Nonhaematologic [7]: 6 (3.6) n (%) | Pericardial effusion [7]: 1 (0.6) n (%) | Proteinuria [7]: 1 (0.6) n (%) | Retinal-vein occlusion [7]: 1 (0.6) n (%) | Thrombocytopenia [7]: 6 (3.6) n (%) | Adverse events resulting in dose interruption (Accelerated phase n=38): 28 (73.7%) n (%) and 28 (73.7) n (%) | Adverse events resulting in dose reduction (Accelerated phase n=38): 14 (36.8%) n (%) and 14 (36.8) n (%) | Adverse events resulting in treatment discontinuation (Accelerated phase n=38): 4 (10.5) n (%) | Atrial fibrillation [8]: 3.0% | Palpitations [8]: 1.2% | Pericardial effusion [8]: 8.5% | Retinal-vein occlusion [8]: 1.8% | Supraventricular extrasystoles [8]: 3.0% | Ventricular extrasystoles [8]: 4.2% | angina pectoris, arrhythmia, atrial tachycardia, cardiomegaly, cerebral ischemia, and/or cerebral infarction [8]: < 1% | G3/4 cardiovascular events [9]: 11.5% | median time on treatment to cardiovascular events (CVEs) [9]: 11 months | Adverse events resulting in dose interruption (Chronic phase n=127): 58 (45.7%) n (%) and 58 (45.7) n (%) | Adverse events resulting in dose reduction (Chronic phase n=127): 36 (28.3%) n (%) and 36 (28.3) n (%) | Adverse events resulting in treatment discontinuation (Chronic phase n=127): 9 (7.1) n (%) | Treatment-related cardiovascular events (Accelerated phase n=38): 4 (10.5) n (%) | Treatment-related cardiovascular events (Chronic phase n=127): 15 (11.8) n (%) | Treatment-related cardiovascular events (Total n=165): 19 (11.5) n (%)
